Laboratory results as given in paper PMC6853154 (Clinical and Translational Science, 2019).
“Also recorded” adds a separate entry of the source. Where two headings read alike, the source gives them in different places.

What was measured:
CYP1A2 [1] = biological target: T1, CYP1A2 (Homo sapiens, UniProt P05177); details: human liver microsomal preparations and/or expressed enzymes; cited from earlier work
T1 sequence (P05177 1-516): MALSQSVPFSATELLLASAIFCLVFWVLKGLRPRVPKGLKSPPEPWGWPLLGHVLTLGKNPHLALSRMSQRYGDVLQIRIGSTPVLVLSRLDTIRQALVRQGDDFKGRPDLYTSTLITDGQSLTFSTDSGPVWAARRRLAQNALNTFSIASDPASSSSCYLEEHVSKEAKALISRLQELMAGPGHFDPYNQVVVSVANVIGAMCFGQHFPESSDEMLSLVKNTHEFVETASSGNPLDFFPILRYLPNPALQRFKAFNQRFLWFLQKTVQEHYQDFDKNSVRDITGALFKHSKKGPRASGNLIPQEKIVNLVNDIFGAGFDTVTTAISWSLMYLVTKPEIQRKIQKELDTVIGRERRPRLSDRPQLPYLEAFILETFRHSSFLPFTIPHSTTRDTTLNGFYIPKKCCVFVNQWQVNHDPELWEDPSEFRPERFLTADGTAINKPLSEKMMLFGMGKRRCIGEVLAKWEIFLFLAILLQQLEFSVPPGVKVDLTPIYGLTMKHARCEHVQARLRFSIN

[2] = format: in vivo, human; details: for AUC(0-inf) / Cmax / Tmax / half-life: human, plasma, po; for AUC0–∞, mean percent change / Cmax, mean percent change / t1/2, mean percent change: multiple doses vs single dose of efavirenz
CYP1A2 [3] = biological target: T1, CYP1A2; assay: In vivo CYP1A2 activity from plasma paraxanthine/caffeine metabolic ratio
CYP1A2 [4] = biological target: T1, CYP1A2; assay: In vivo CYP1A2 activity from urinary caffeine metabolic ratio
CYP2A6 [5] = assay: In vivo CYP2A6 activity from urinary caffeine metabolic ratio; set-up: species or system human
xanthine oxidase (XO) = xanthine oxidase (XO) (Homo sapiens, UniProt P47989); assay: In vivo xanthine oxidase activity from urinary caffeine metabolic ratio; details: for XO activity, urinary MR (1 MU)/(1 MX + 1 MU): mean ± SD
Chain of xanthine oxidase (XO) (P47989 whole entry): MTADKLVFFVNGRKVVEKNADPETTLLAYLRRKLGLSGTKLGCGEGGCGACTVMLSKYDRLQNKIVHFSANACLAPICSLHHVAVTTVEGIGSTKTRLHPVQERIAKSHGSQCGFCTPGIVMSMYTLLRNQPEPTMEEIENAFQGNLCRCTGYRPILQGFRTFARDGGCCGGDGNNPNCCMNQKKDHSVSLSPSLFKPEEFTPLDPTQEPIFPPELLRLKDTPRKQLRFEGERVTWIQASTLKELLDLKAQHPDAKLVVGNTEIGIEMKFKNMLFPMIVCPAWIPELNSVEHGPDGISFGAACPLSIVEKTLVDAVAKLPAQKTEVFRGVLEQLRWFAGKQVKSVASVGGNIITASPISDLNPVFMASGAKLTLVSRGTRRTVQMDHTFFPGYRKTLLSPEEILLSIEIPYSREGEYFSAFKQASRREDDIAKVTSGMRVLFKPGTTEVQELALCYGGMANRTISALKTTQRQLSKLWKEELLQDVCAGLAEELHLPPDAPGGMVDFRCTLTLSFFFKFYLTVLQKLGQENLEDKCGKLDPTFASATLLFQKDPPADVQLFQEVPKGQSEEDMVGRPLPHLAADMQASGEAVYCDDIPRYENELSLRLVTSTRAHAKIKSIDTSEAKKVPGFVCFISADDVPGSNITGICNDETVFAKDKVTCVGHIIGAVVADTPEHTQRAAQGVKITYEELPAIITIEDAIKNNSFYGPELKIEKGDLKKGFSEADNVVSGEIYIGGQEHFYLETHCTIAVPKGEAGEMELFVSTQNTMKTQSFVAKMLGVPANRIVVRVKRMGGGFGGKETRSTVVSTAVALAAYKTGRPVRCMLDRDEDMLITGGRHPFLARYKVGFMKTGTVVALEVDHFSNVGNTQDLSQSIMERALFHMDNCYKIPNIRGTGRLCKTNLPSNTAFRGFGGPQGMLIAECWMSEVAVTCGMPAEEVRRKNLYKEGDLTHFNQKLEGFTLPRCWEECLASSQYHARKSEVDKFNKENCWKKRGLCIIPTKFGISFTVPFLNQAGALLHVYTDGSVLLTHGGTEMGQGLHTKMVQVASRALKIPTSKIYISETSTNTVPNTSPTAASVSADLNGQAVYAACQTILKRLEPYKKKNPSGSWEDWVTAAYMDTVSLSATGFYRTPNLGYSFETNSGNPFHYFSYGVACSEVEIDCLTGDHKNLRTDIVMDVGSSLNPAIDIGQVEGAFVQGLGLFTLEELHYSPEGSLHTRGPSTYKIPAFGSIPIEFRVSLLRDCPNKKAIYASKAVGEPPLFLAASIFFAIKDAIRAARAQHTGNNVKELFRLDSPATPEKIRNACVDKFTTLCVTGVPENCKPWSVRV

[6] = biological target: T2, N‐acetyltransferase 2 (NAT2) (Homo sapiens, UniProt P11245); assay: In vivo NAT2 activity from urinary caffeine metabolic ratio; details: for NAT2 activity, urinary MR AFMU/(AFMU + 1 MU + 1 MX): mean ± SD
T2 sequence (P11245 1-290): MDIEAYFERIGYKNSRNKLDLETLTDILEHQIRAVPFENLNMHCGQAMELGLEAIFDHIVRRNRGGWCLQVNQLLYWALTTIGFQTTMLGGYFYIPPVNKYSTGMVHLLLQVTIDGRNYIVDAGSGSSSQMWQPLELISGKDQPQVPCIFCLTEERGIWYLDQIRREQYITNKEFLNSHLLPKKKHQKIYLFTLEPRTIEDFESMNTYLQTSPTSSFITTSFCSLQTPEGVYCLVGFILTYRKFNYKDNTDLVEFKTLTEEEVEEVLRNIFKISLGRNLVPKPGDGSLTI

[7] = cited from earlier work
CYP2A6 [8] = details: human liver microsomal preparations and/or expressed enzymes; cited from earlier work
CYP2B6 = details: at therapeutically relevant concentrations; cited from earlier work
CYP2C8 = details: at therapeutically relevant concentrations; cited from earlier work
CYP2C19 = details: at therapeutically relevant concentrations; cited from earlier work
CYP2C9 = details: at therapeutically relevant concentrations; cited from earlier work
[9] = HIV/tuberculosis‐coinfected patients, cited from earlier work
[10] = Efavirenz plasma exposure in healthy volunteers, also by CYP2B6 genotype; details: following a single dose and multiple doses of efavirenz
CYP1A2 [11] = details: coadministration of potent CYP1A2 inhibitor; cited from earlier work
[12] = after multiple doses of efavirenz
[13] = chronic efavirenz relative to single‐dose phase
[14] = multiple doses vs single dose of efavirenz
[15] = multiple doses relative to single‐dose efavirenz
[16] = multiple doses of efavirenz (600 mg/day, 17 days)

O=C1Nc2c(O)cc(Cl)cc2[C@@](C#CC2CC2)(C(F)(F)F)O1 [8‐hydroxyefavirenz]
Inhibition/inactivation of CYP1A2 activity in vitro, in words (CYP1A2 [1]): no effect

Cn1c(=O)c2c(ncn2C)n(C)c1=O [Caffeine]
Caffeine AUC0‐∞ by CYP2B6 genotype, in words ([2]; both efavirenz treatment groups, compared with *1/*1 genotype): significantly higher for *6/*6 genotype
AUC(0-inf) [2]: 17300 ± 11600 ng·h/mL
Cmax [2]: 1820 ng/mL
Tmax [2]: 1 h
half-life [2]: 7.61 ± 8.29 h
AUC(0-inf) ([2]; 150 mg): 22700 ± 18400 ng·h/mL
Cmax ([2]; 150 mg): 1900 ng/mL
Tmax ([2]; 150 mg): 1 h
half-life ([2]; 150 mg): 8.87 ± 4.98 h
AUC0–∞, mean percent change [2]: 46.2%
Cmax, mean percent change [2]: 17.4%
t1/2, mean percent change [2]: 32.5%

Cn1c(=O)[nH]c2ncn(C)c2c1=O [Paraxanthine, 1,7‐dimethylxanthine]
AUC(0-inf) [2]: 10800 ± 6100 ng·h/mL
Cmax [2]: 504 ± 236 ng/mL
Tmax [2]: 7 h
half-life [2]: 10.8 ± 9.21 h
AUC(0-inf) ([2]; 150 mg): 8600 ± 5800 ng·h/mL
Cmax ([2]; 150 mg): 358 ± 208 ng/mL
Tmax ([2]; 150 mg): 7 h
half-life ([2]; 150 mg): 12.2 ± 7.88 h
AUC0–∞, mean percent change [2]: −8.6%
Cmax, mean percent change [2]: −24.5%
t1/2, mean percent change [2]: 26.3%

O=C1Nc2ccc(Cl)cc2[C@@](C#CC2CC2)(C(F)(F)F)O1 [efavirenz]
Correlation (r s) of CYP1A2 activity with efavirenz AUC0–24 h (CYP1A2 [3]; [12]): −0.61
Correlation (r s) of percent change in CYP1A2 activity with efavirenz AUC0–24 h (CYP1A2 [3]; [12]): −0.41
Decrease of CYP1A2 activity (plasma MRs) (CYP1A2 [3]; [13]): 38%
Interindividual range of percent change in CYP1A2 activity (plasma MRs) (CYP1A2 [3]; chronic efavirenz relative to single‐dose phase, 58 subjects): −78.2% to 31.7
CYP1A2 activity, plasma MR, mean percent change (CYP1A2 [3]; [14]): −38.1%
Correlation (r s) of CYP1A2 activity with efavirenz AUC0–∞ (CYP1A2 [3]; single 600 mg dose of efavirenz): −0.32
Decrease of CYP1A2 activity measured by urinary MRs (CYP1A2 [4]; [13]): 28.9%
Interindividual range of percent change in urine MR (CYP1A2) (CYP1A2 [4]; [13]): −65.1% to 43.2
CYP1A2 activity, urinary MR, mean percent change (CYP1A2 [4]; [14]): −28.9%
Increase of CYP2A6 activity (CYP2A6 [5]; [15]): 85%
CYP2A6 activity, urinary MR, mean percent change (CYP2A6 [5]; [14]): 85.5%
XO activity, urinary MR (1 MU)/(1 MX + 1 MU) (xanthine oxidase (XO); [16]): 0.37 ± 0.16
Effect on XO activity (urinary MR), in words (xanthine oxidase (XO); [15]): unaffected; also recorded: not significantly altered
XO activity, urinary MR, mean percent change (xanthine oxidase (XO); [14]): 1.1%
XO activity, urinary MR (1 MU)/(1 MX + 1 MU) (xanthine oxidase (XO); single 600 mg efavirenz dose): 0.37 ± 0.16
NAT2 activity, urinary MR AFMU/(AFMU + 1 MU + 1 MX) [6, 16]: 0.32 ± 0.22
Effect on NAT2 activity (urinary MR), in words [6, 15]: unaffected; also recorded: not significantly altered
NAT2 activity, urinary MR, mean percent change [6, 14]: 4.5%
NAT2 activity, urinary MR AFMU/(AFMU + 1 MU + 1 MX) ([6]; single 600 mg efavirenz dose): 0.31 ± 0.21
Efavirenz exposure (AUC0–24), fold higher in CYP2B6*6/*6 vs CYP2B6*1/*1 ([7]; multiple doses of efavirenz): 2.5 fold
Efavirenz exposure (AUC0–24), fold higher in CYP2B6*6/*6 vs CYP2B6*1/*6 ([7]; multiple doses of efavirenz): 2 fold
Efavirenz exposure (AUC0–∞), fold higher in CYP2B6*6/*6 vs CYP2B6*1/*1 ([7]; single dose of efavirenz): 2.1 fold
Efavirenz exposure (AUC0–∞), fold higher in CYP2B6*6/*6 vs CYP2B6*1/*6 ([7]; single dose of efavirenz): 1.8 fold
Inhibition/inactivation of CYP1A2 activity in vitro, in words (CYP1A2 [1]): does not inhibit/inactivate; also recorded: neither a reversible inhibitor nor a mechanism‐based (i.e., time‐dependent) inactivator
Inhibition/inactivation of CYP2A6 activity in vitro, in words (CYP2A6 [8]): does not inhibit/inactivate
Inhibition of CYP2B6 in vitro, in words (CYP2B6): directly inhibits
Inhibition of CYP2C8 in vitro, in words (CYP2C8): directly inhibits
Inhibition of CYP2C19 in vitro, in words (CYP2C19): directly inhibits
Inhibition of CYP2C9 in vitro, in words (CYP2C9): directly inhibits
Reduction of model‐predicted exposure of isoniazid by efavirenz ([9]; fast acetylators): 29%
Effect of efavirenz on model‐predicted exposure of isoniazid, in words ([9]; slow acetylators): no effect
Between‐subject differences in efavirenz exposure [10]: Approximately sevenfold

COCCCC/C(=N\OCCN)c1ccc(C(F)(F)F)cc1 [fluvoxamine]
Increase of plasma exposure of tizanidine (CYP1A2 [11]): up to 30 fold
